Columns and labels:
[1] = system: CD3+ cells from peripheral blood mononuclear cells; test: Delivery of FITC to primary suspension cells, FACS analysis; type: cell-based; details: primary human CD3+ cells, 10 µM, 15 minutes
Procedure: To determine whether SMCs deliver small molecules to primary human cells, CD3+ cells were isolated by MACS separation from freshly harvested peripheral blood mononuclear cells. This purified cell population was treated with 10 µM of each compound for 15 minutes. Cells were then washed in PBS and analyzed by FACS.

[2] = system: Human osteosarcoma cells (U2OS); test: Uptake and sub-cellular localization by confocal microscopy; type: cell-based; details: 10 μM, 10 minutes incubation, no fixation
Procedure: In order to observe the ability of the di-guanidine and tetra-guanidine compounds to transport small molecules, they were coupled to FITC, which emits light at 514 nm after laser excitation at 492 nm. Human osteosarcoma cells (U2OS) were cultured on glass coverslips and incubated for 10 minutes with each compound to a final concentration of 10 μM. They were compared to FITC conjugated to TAT and FITC alone. After incubation, cells were rinsed in PBS and mounted, without fixation, onto slides and visualized by confocal microscopy. […] Cells were visualized under higher magnification (63×), to assess sub-cellular localization of the FITC.

[3] = system: U2OS cells; test: Delivery of FITC, FACS analysis of live cells; type: cell-based, human; details: 10 µM, 15 minutes
Procedure: The efficiency of delivery of FITC by these guanidine carriers was tested by FACS analysis. U2OS cells were treated with at a concentration of 10 µM with each of the compounds indicated for 15 minutes, and then harvested by trypsinization, and washed in PBS. The live cells were then subjected to FACS analysis.

[4] = system: NIH3T3 fibroblasts; test: S-phase assay (cellular DNA synthesis, BrdU incorporation); type: cell-based, mouse
Procedure: (§1) A) NIH3T3 fibroblasts were incubated for one hour with 10 μM recombinant His6-Geminin or 10 μM Geminin-SMC conjugate. Cells were fixed, permeabilised and stained with a polyclonal rabbit anti-Geminin primary, a FITC-conjugated anti-rabbit secondary and counterstained with DAPI. […] B) NIH3T3 fibroblasts were driven into quiescence by density-dependent growth arrest and after 5 days were released back into the cell cycle by subculturing into fresh growth medium. 8 hours after release from quiescence 10 μM of Geminin-SMC was added to the cells. At 21 hours following release cells were pulse-labelled for one hour with 50 μM BrdU. Subsequently cells were fixed, permeabilised and stained with FITC-conjugated anti-BrdU and counterstained with propidium iodide. In a control population 68% of cells were able to re-enter the cell cycle following release whilst in the presence of Geminin-SMC replication dropped by 47% respectively.
Essentially the system is set up as follows: Mouse or human fibroblasts are arrested in quiescence (G0) by contact inhibition.
The quiescent fibroblasts are then subcultured at lower density to release fibroblasts from G0. Re-entry into the DNA synthesis phase (S phase) occurs 21 hours after the release. Pre-replicative complexes (pre-RCs) essential for unwinding of the DNA helix prior to DNA synthesis are assembled at replication origins 16-18 hrs after the release from G0.
One sample of cells is untreated and the other is treated by exposure to an SMC-conjugate according to the present invention. Treatment takes place before pre-RC assembly, preferably at 5-10 hours after release from G0.
The ability of cells to start S phase is monitored with a BrdU pulse at 21 hours. BrdU becomes incorporated into DNA during DNA synthesis and is thus a marker for entry into S phase. BrdU incorporation is then assayed and treated cells are compared with non-treated cells.
For synchronisation in G0, NIH3T3 fibroblasts are seeded at high density and driven into density-dependent growth arrest. […]
DNA synthesis is monitored by pulse labelling cells 21 h after release from G0 for 1 h with 50 μM BrdU. […]
The percentage of cells undergoing DNA replication is determined from images obtained by confocal fluorescence microscopy on a Leica TCS SP confocal microscope. […]
Plasmids expressing […] are microinjected into the nuclei of NIH3T3 fibroblasts at the treatment time 8 hours after release from density-dependent growth arrest in G0. The ability of cells to initiate DNA replication was assessed by pulse labelling cells 19 hours after release from G0 for 1 hour with bromodeoxyuridine (BrdU). Expression of E1̂E4 protein and incorporation of BrdU was monitored by confocal immunofluorescence microscopy. […]

[5] = system: NIH3T3 fibroblasts; test: Uptake of Geminin-SMC conjugate, anti-Geminin immunofluorescence; type: cell-based, mouse; details: 10 μM, one hour
Procedure: as §1

Molecule	cells fluorescent [1]	sub-cellular localization of the FITC at higher magnification (63×) [2]	cells fluorescent above the background auto-fluorescence [3]	drop of replication (BrdU incorporation) ([4]; 10 μM added 8 hours after release from quiescence, BrdU pulse at 21 hours, control population 68% re-entered cell cycle)	number of cells entering S phase ([4]; 10 fM to 10 μM, treatment 8 hours after G0 release)	DNA synthesis as monitored by S-phase assay ([4]; treatment 8 hours after G0 release, BrdU pulse at 21 hours, concentration range per example (10 fM to 30 μM))	uptake of SMC-conjugate into the cells ([4]; treatment 8 hours after G0 release, concentration range per example (10 fM to 30 μM))	FITC staining (anti-Geminin) within the cells [5]
N=C(N)NCCOc1c(CNC(=S)Nc2ccc3c(c2)C(=O)OC32c3ccc(O)cc3Oc3cc(O)ccc32)ccc(-c2ccccc2)c1OCCNC(=N)N [di-guanidine-FITC, 2-[2,3-bis(2-guanidino-ethyloxy)-biphenyl-4-ylmethyl]-thioureido-fluorescein]	88%	both nuclear and cytoplasmic fluorescence	80%	–	–	–	–	–
N=C(N)NCCOc1cccc(-c2ccc(CNC(=S)Nc3ccc4c(c3)C(=O)OC43c4ccc(O)cc4Oc4cc(O)ccc43)c(OCCNC(=N)N)c2OCCNC(=N)N)c1OCCNC(=N)N [tetra-guanidine-FITC, [2,3,2′,3′-Tetra(2-guanidino-ethyloxy)-biphenyl-4-ylmethyl]-thioureido-fluorescein]	62%	intense nuclear fluorescence	80%	–	–	–	–	–
Geminin-SMC: conjugate of a compound of formula Ic with the pre-RC assembly repressor protein Geminin (209 aa) (conjugate, UniProt O75496 1-209, looked up, full-length conjugated to SMC compound of formula Ic) MNPSMKQKQEEIKENIKNSSVPRRTLKMIQPSASGSLVGRENELSAGLSKRKHRNDHLTSTTSSPGVIVPESSENKNLGGVTQESFDLMIKENPSSQYWKEVAEKRRKALYEALKENEKLHKEIEQKDNEIARLKKENKELAEVAEHVQYMAELIERLNGEPLDNFESLDNQEFDSEEETVEDSLVEDSEIGTCAEGTVSSSTDAKPCI	–	–	–	47%	dramatic reduction	inhibits DNA synthesis	efficiently taken into the cells	strong FITC staining
His6-Geminin: recombinant His6-Geminin, unconjugated form of Geminin (protein, UniProt O75496 1-209, looked up, His6 tag) Geminin: MNPSMKQKQEEIKENIKNSSVPRRTLKMIQPSASGSLVGRENELSAGLSKRKHRNDHLTSTTSSPGVIVPESSENKNLGGVTQESFDLMIKENPSSQYWKEVAEKRRKALYEALKENEKLHKEIEQKDNEIARLKKENKELAEVAEHVQYMAELIERLNGEPLDNFESLDNQEFDSEEETVEDSLVEDSEIGTCAEGTVSSSTDAKPCI	–	–	–	–	–	–	–	no FITC staining
